Measured values from US20070105924A1 (priority 2005, published 2007).

Assays:
[1] = isosteric functionality compared with a carboxylic group; cited from earlier work
[2] = molecular target: T1, GABA-AT (Sus scrofa, UniProt P80147); assay: Preliminary substrate activity test with [14C]-labeled α-ketoglutarate; format: biochemical, pig; details: for Converted α-KG: incubation time 48 h, GABA-AT 0.7 μM, substrate 2.5 mM, α-KG 2.9 mM; for substrate activity for GABA-AT (in words): preliminary test, 48 h incubation
From the text: Tetrazole derivative 5 was the most efficient of the synthesized substrates. The tetrazole group was the best bioisostere for the carboxylic acid group in this series of compounds tested.

[3] = molecular target: T1, GABA-AT; assay: Time-dependent inhibition of GABA-AT (Kitz and Wilson replot); format: biochemical, pig; details: for time-dependent inhibition of GABA-AT (in words): 9 and 10 compared with 8 at the same concentration
Description: Aliquots (20 μL) were withdrawn at timed intervals and were added immediately to the assay solution (575 μL) followed by the addition of excess SSDH (5 μL). The reaction rates were measured by a UV-vis spectrophotometer at 340 nm. […] A Kitz and Wilson replot was used to determine the kinetic constants kinact and KI, as referenced above.

[4] = molecular target: T1, GABA-AT; assay: Time-independent inhibition of GABA-AT; format: biochemical, pig; details: 1-10 mM inhibitor, 25° C., read-out: estimated IC50
From the text: The percentage of remained enzyme activity was obtained by comparison to that of an untreated enzyme control. The logarithm of the percentage of remained activity is plotted versus the concentration of the inhibitors to calculate IC50 values.

[5] = time-dependent inhibition, 25 ° C., pH 8.5

T1 sequence (P80147 29-500): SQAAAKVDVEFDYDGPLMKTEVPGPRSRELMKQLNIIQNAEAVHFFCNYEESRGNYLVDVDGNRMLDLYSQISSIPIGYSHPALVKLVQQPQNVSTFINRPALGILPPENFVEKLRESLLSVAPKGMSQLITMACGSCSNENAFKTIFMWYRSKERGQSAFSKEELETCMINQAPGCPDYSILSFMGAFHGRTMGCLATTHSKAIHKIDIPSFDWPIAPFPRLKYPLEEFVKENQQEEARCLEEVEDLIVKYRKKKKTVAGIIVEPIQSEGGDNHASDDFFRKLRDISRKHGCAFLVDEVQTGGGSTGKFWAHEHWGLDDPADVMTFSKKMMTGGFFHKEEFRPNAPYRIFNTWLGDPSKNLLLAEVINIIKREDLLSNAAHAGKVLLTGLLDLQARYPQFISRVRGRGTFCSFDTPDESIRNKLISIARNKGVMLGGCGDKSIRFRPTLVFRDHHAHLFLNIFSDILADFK

Row | SMILES | Converted α-KG [2] [%] | substrate activity for GABA-AT (in words) [2] | time-dependent inhibition of GABA-AT (in words) [3] | further results
1 | NCc1ccc2[nH]ccc2c1 [Compound 4, Indole-5-methanamine] | 0.1 | little or no substrate activity | – | –
2 | NCCc1nnn[nH]1 [Compound 5, 1H-Tetrazole-5-ethanamine] | 20 | substrates for GABA-AT | – | –
3 | C=CC(N)CCc1nnn[nH]1 (stereo not drawn) [Compound 8, 1H-Tetrzole-5-(α-vinyl-propanamine)] | – | – | showed time-dependent inhibition | times less efficient (kinact/KI) than vigabatrin ([3]; relative to racemic vigabatrin): 6.6 times; kinact/KI ([3]; time-dependent inhibition): 2.17 M⁻¹ s⁻¹; Ki [3, 5]: 5.6 mM; kinact [3, 5]: 0.0122 s⁻¹
4 | C=CC(N)CCc1nnn(C)n1 (stereo not drawn) [Compound 9, 2-Methyl-2H-tetrazole-5-(α-vinyl-propanamine)] | – | – | Neither 9 nor 10 showed time-dependent inhibition | IC50 [4]: > 10 mM
5 | C=CC(N)CCc1nnnn1C (stereo not drawn) [Compound 10, 1-methyl-1H-tetrazole-5-(α-vinyl-propanamine)] | – | – | Neither 9 nor 10 showed time-dependent inhibition | IC50 [4]: > 10 mM

Further lines, with some results ahead:

Row | Converted α-KG [2] [%] | substrate activity for GABA-AT (in words) [2] | SMILES | time-dependent inhibition of GABA-AT (in words) [3] | further results
6 | 1.3 | substrates for GABA-AT | COC(=O)NC(=O)CCN [Compound 2, Methyl β-alanylcarbamate] | – | pKa [1]: ~8
7 | 6.4 | substrates for GABA-AT | CS(=O)(=O)NC(=O)CCN [Compound 3, Methyl b-alanylsulfonamide] | – | pKa [1]: comparable to that of a carboxylic acid
8 | 25 | – | NCCCC(=O)O [GABA, γ-aminobutyric acid, reference compound] | – | –
